Reference: the METLIN SMRT retention time set (Domingo-Almenara et al. 2019)

Test: gradient 5% acetonitrile 3 min, to 50% in 2 min, to 85% in 15 min, held 3 min, 100 µL/min
Conditions: column: Zorbax Extend-C18 2.1 x 50 mm; eluents: water / acetonitrile, 0.1% formic acid
Summary of the method: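 The mobile phases were water and acetonitrile, each with 0.1% formic acid, pumped at 100 μL/min through a Zorbax Extend-C18 column (2.1 × 50 mm, 1.8 μm). Pure standards were injected as mixtures of ~100 molecules and detected by a quadrupole time-of-flight mass spectrometer in positive and negative ionization mode. Retention time came from computationally picked adduct peaks, each inspected by hand.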

SMILES	RP-LC retention time [s]
CC1(C)c2ccccc2-c2nc3ccccc3cc2C1O (centres undefined)	890
CN1CCN2c3ncccc3Cc3ccccc3[C@@H]2C1	647
CCOc1ccc(Oc2cc3c(cc2NC(=O)COc2ccc(C)cc2)n(C)c(=O)c(=O)n3C)cc1	1030
CCCCn1c(=O)c2ccccc2n(Cc2nc(-c3ccc4c(c3)OCO4)no2)c1=O	1130
CC(=O)Nc1c(-c2ccccn2)nsc1C(=O)N1CCC(C)CC1	849
CN(C)S(=O)(=O)c1ccc(-c2nnc(C(=O)NCc3ccc(Br)cc3)o2)cc1	912
CN(C)C(=O)CSc1nnc(-c2ccc3c(c2)OCCCO3)n1C1CC1	676
CCc1nc(-c2cccc(-c3noc(COc4ccccc4)n3)c2)cs1	1300
Cc1c(-c2noc(-c3ccc4c(c3)OCO4)n2)nnn1-c1ccc(F)cc1	745
CC(CNC(=O)c1cc2n(n1)CC(C)(C(=O)NC1CCCC1)N(C)C2=O)c1ccccc1 (centres undefined)	884
COc1ccc(-c2[nH]c3ccccc3c2C(C[N+](=O)[O-])c2cccs2)cc1OC (centres undefined)	960
COc1ccc(C(=O)N2CCC(COc3ccc(C(=O)NC4CC4)cc3)CC2)cc1F	798
Cc1noc(-c2ccc(=O)n(CC(=O)Nc3ccccc3)c2)n1	667
Cc1oc(-c2[nH]ncc2C(=O)N(C)C)cc1S(=O)(=O)Nc1ccc(Cl)cc1F	714
C[C@H]1CN(C(=O)c2ccc3ccccc3n2)C[C@@H]1c1nc(-c2ccncc2)no1	830
Cc1nc(CCNS(=O)(=O)c2cccnc2)no1	603
COC(=O)CNC(=O)NC(Cc1ccccc1)Cc1ccc2c(c1)OCO2 (centres undefined)	810
O=C(COc1ccccc1)N1CCC(CNS(=O)(=O)Cc2cccc(F)c2)CC1	782
COCCN1C(=O)c2ccccc2C(C(=O)Nc2nc(C)c(C)s2)C12CCCC2 (centres undefined)	842

SMILES	RP-LC retention time [s]
CCc1ccc(NC(=O)N2CCC(N3CCN(Cc4ccc(F)cc4)C(=O)C3=O)CC2)cc1	769
O=C(NCCn1nnc2cc(C(=O)N3CCCCC3)ccc21)NC1CCCCC1	707
CC1CCN(S(=O)(=O)c2ccc(-c3nnc(C(=O)NC4CCCC4)o3)cc2)CC1	1030
O=C(Nc1ccc(OC(F)(F)F)cc1)C(=O)Nc1cccc([N+](=O)[O-])c1	1030
CCC(Oc1ccc(Cl)cc1)C(=O)OC1CC2CCC(C1)N2C (centres undefined)	815
CC(C)(C)OC(=O)Cn1cnc2c(-c3ccc(Br)cc3)csc2c1=O	1140
O=C(CSc1nccn1-c1ccc(C(=O)NCc2cccs2)cc1)NC1CCCC1	644
CCC(CC)C(=O)N1CCc2c(c(-c3nnc(-c4ccccc4Cl)o3)nn2C)C1	899
Cc1cccc(-c2nc3cnccn3c2NCCC(=O)NCC(C)C)c1	672
Cc1cc(Nc2ccc(F)cc2)nc2nn(Cc3cc(=O)n4ccccc4n3)c(=O)n12	836
Clc1ccc(-c2nnc(-c3cccnc3N3CCC4(CC3)OCCO4)o2)cc1	1010
Cc1csc(-c2cc(S(=O)(=O)Nc3ccc(F)cc3Cl)c(C)s2)n1	1040
Cc1cc(Br)ccc1NC(=O)c1cc2n(n1)CCCC2	993
O=C(c1ccc2ccnc(N3CCN(c4ccc(Cl)cc4)CC3)c2c1)N1CCC2(CC1)OCCO2	791
Cc1ccc(C(=O)NCCn2c(C)cnc2C)s1	589
O=C1NC2(CCN(C(=O)Nc3ccc(Br)cc3)CC2)N=C1c1cccc(F)c1	893
COc1ccc(-n2ccc(=O)c(-c3nc(-c4ccc(C)cc4)no3)n2)cc1	932
COc1ccc(CNC(=O)NCC2CCN(S(=O)(=O)C3CC3)CC2)cc1	662
Cc1cc(N2CCN(C)CC2)n2nc(-c3ccc(C(C)(C)C)cc3)nc2n1	656

SMILES	RP-LC retention time [s]
Cc1noc(-c2cccc(OC3CN(C(=O)NC4CCCC4)C3)c2)n1	850
Cc1ccc(Nc2c(-c3ccc4c(c3)OCO4)nc3cnccn23)c(C)c1	933
CCOC(=O)c1cccc(NC(=O)Cc2csc3nc(-c4ccc(C)c(C)c4)cn23)c1	929
COc1cccc(C(=O)N2CCC3(CC2)N=C(c2ccccc2)NO3)c1	728
CC1CCN(C(=O)c2cc(S(=O)(=O)N3CCC(C(=O)N4CCCCC4)CC3)cn2C)CC1	796
O=C(NCC1CCCO1)C1CCN(Cc2cc3ccccc3n2Cc2ccc(F)cc2)CC1 (centres undefined)	702
COc1ccc(-c2nc3ncccn3c2Nc2cc(C)cc(C)c2)cc1	784
COC(=O)c1cc2ccsc2n1Cc1ccccc1C#N	1030
CC1CCN(S(=O)(=O)c2cccc(-c3nc(-c4ccccc4)no3)c2)CC1	1360
Cc1ccc(F)c(NS(=O)(=O)c2cc(-c3[nH]ncc3C(=O)N3CCOCC3)oc2C)c1	678
Cc1sc(-c2nnc(C(=O)N3CCCC3)o2)cc1S(=O)(=O)N1CCN(C)CC1	607
CCc1nnc(-c2ccc3ccn(CC(=O)Nc4cc(OC)c(OC)c(OC)c4)c3c2)o1	777
Cn1cccc1Cc1nnc(SCC(=O)N2CCCc3ccccc32)n1C	767
O=C(NC1CCN(c2ccc(=O)[nH]n2)C1)c1ccc(F)c(Cl)c1 (centres undefined)	648
COc1ccc2c(c1)C1(CCN(C(=O)c3cccc(F)c3)C1)C(=O)N2 (centres undefined)	717
COCC(=O)N[C@@H]1CN(C2CCCCCC2)CC[C@@H]1CO	561
CCCCN(C)C(=O)C1CCCN(c2ccc(-c3ccc(C)cc3)nn2)C1 (centres undefined)	750
COc1ccc(NC(=O)N2CCCn3nc(-c4cccc(Cl)c4)cc3C2)cc1F	945
CCC(C)NC(=O)N1CCCN(C2=NS(=O)(=O)C(c3cccc(Cl)c3)=C2C)CC1 (centres undefined)	837

Next, values leading:

RP-LC retention time [s]	SMILES
753	O=C(c1ccco1)N1CCN(C(=O)c2sc3ncccc3c2-n2cccc2)CC1
711	O=C([C@H]1C[C@@H](F)CN1S(=O)(=O)c1ccc(Cl)cc1)N1CCOCC1
798	CC(=O)Nc1ccc(-c2noc(C3CCCN(C(=O)CCc4c[nH]c5ccccc45)C3)n2)cc1 (centres undefined)
1010	Cc1ccc(S(=O)(=O)N2CCCC2)cc1-c1nnc(-c2ccccc2)o1
788	CC(C)Cn1cc(CCNC(=O)c2c(F)cccc2F)c2cccnc21
838	CCN(C(=O)C1CCC(C)CC1)c1nc(-c2ccccc2)cs1 (centres undefined)
772	CCN(Cc1ccccc1)Cc1nc(-c2ccc(N3CCOCC3)nc2)no1
921	CCCc1noc(-c2ccc3nnc(CC(=O)Nc4ccc(F)c(C)c4)n3c2)n1
645	COc1ccc(-c2cc(C(=O)O)c3ccccc3n2)cc1
622	CN1CCN(Cc2nn(C)c3c2CN(S(=O)(=O)c2ccc(F)c(Cl)c2)CC3)CC1
1290	CCOc1ccccc1NC(=O)Cn1nc(N2CCC(C)CC2)c2ccccc2c1=O
1130	COc1ccc(N2CCN(c3cc(SCC(=O)Nc4cc(F)ccc4F)ncn3)CC2)cc1
1180	CCCCOc1ccc(C(=O)N2CCCC2c2nc(-c3ccc(OC)cc3)no2)cc1 (centres undefined)
779	Cc1sc2ccn(C)c(=O)c2c1C(=O)NC(C)c1ccc(F)cc1 (centres undefined)
766	CCOC(=O)c1ccc(NC(=O)CN2CCN(Cc3ccccc3)C(=O)C2=O)cc1
615	Cc1ccccc1OCC(=O)NC1CCN(Cc2c(C)noc2C)CC1

RP-LC retention time [s]	SMILES
880	Cc1ccc(N2CC(c3nc(-c4ccc5c(c4)nnn5C)no3)CC2=O)cc1C (centres undefined)
1060	COc1ccc(-c2noc(Cc3nnc(-c4ccc(Cl)cc4)o3)n2)cc1
871	COc1ccc(NC(=O)C2CCN(S(=O)(=O)c3cc(-c4noc(C)n4)cs3)CC2)cc1
1040	Cc1ccccc1Nc1c(-c2ccccc2O)nc2ccc(Cl)cn12
680	O=C(CCC1CCN(c2cc(NC3CC3)ncn2)CC1)NCc1cccc(Cl)c1
756	COCC(=O)Nc1ccc2nc(-c3ccc(Cl)cc3)cc(OCC(=O)OC)c2c1
1010	CCCc1nc(-c2c(C)cc(C)nc2NC(=O)c2cccc(Br)c2)no1
646	Cc1nc(CC(=O)N2CCC(C(N)=O)CC2)cs1
684	Cc1nc(N2CCN(Cc3ccc4c(c3)OCO4)CC2)nc2c1C(=O)CC(C)C2 (centres undefined)
890	CCC(C(=O)NCCc1c[nH]c2ccc(OC)cc12)n1c2ccccc2c2cnn(C)c(=O)c21 (centres undefined)
1130	COc1ccc(OC)c(NS(=O)(=O)c2cc(-c3cc(C(F)(F)F)on3)sc2C)c1
694	CN(C)C(=O)Cn1c(C(F)(F)F)nc2cc3c(cc21)OCCO3
906	CCCS(=O)(=O)c1nc2ccc(NS(=O)(=O)c3ccccc3Cl)cc2s1
538	Cc1cnc(C2CN(Cc3ccccn3)C2)n1CC1CC1
1320	Cc1ccc(-c2csc(Cc3nc(-c4ccc(F)cc4)no3)n2)cc1C
771	CC(C)(C)CC(C)(C)n1nnnc1N
